According to the supplement of paper PMC4862054:

Columns and labels:
Conditions in all cases: incubation time: 72 h
Hs578T [1] = test: normalised response (% of control), CellTiter-Glo; higher = more viable cells (100 = DMSO, 0 = benzethonium chloride kill control)
Protocol: (§1)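 DSRT, 72 h incubation, CellTox Green / CellTiter-Glo readout. Signal is normalised to DMSO and benzethonium chloride controls. Value is the normalised response at the highest dose.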

MDA-MB-436 [2] = test: as above
Protocol: as §1

BT-474 [3] = test: as above
Protocol: as §1

HDQ-P1 [4] = test: as above
Protocol: as §1

CAL-51 [5] = test: as above
Protocol: as §1

DU-4475 [6] = test: as above
Protocol: as §1

HCC1143 [7] = test: as above
Protocol: as §1

BT-549 [8] = test: as above
Protocol: as §1

SK-BR-3 = test: as above
Protocol: as §1

MDA-MB-231 [9] = test: as above
Protocol: as §1

CAL-120 [10] = test: as above
Protocol: as §1

MDA-MB-453 [11] = test: as above
Protocol: as §1

MFM-223 [12] = test: as above
Protocol: as §1

HCC1937 [13] = test: as above
Protocol: as §1

CAL-148 [14] = test: as above
Protocol: as §1

MDA-MB-468 [15] = test: as above
Protocol: as §1

HCC1599 [16] = test: as above
Protocol: as §1

MCF-10A [17] = test: as above
Protocol: as §1

CAL-85-1 [18] = test: as above
Protocol: as §1

Hs578T [19] = test: normalised response (% of control), CellTox Green; higher = less cell death (100 = DMSO, 0 = benzethonium chloride kill control)
Outline: (§2)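 Plates were normalised with 0.1 % DMSO as 100 and a positive kill control as 0. Breast cancer cell lines in 20 µl suspension had been seeded into 384-well plates with compound at 5 concentrations in 10-fold steps over a compound-specific 10,000-fold range, incubated 72 h, and read for CellTox Green fluorescence (485/520 nm) followed by CellTiter-Glo luminescence. Each value is the normalised signal at a single concentration.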

MDA-MB-436 [20] = test: as above
Outline: as §2

BT-474 [21] = test: as above
Outline: as §2

HDQ-P1 [22] = test: as above
Outline: as §2

CAL-51 [23] = test: as above
Outline: as §2

DU-4475 [24] = test: as above
Outline: as §2

HCC1143 [25] = test: as above
Outline: as §2

BT-549 [26] = test: as above
Outline: as §2

MDA-MB-231 [27] = test: as above
Outline: as §2

CAL-120 [28] = test: as above
Outline: as §2

MDA-MB-453 [29] = test: as above
Outline: as §2

MFM-223 [30] = test: as above
Outline: as §2

HCC1937 [31] = test: as above
Outline: as §2

CAL-148 [32] = test: as above
Outline: as §2

MDA-MB-468 [33] = test: as above
Outline: as §2

HCC1599 [34] = test: as above
Outline: as §2

MCF-10A [35] = test: as above
Outline: as §2

CAL-85-1 [36] = test: as above
Outline: as §2

SMILES	normalised response (Hs578T [1]) [%]	normalised response (MDA-MB-436 [2]) [%]	normalised response (BT-474 [3]) [%]	normalised response (HDQ-P1 [4]) [%]	normalised response (CAL-51 [5]) [%]	normalised response (DU-4475 [6]) [%]	normalised response (HCC1143 [7]) [%]	normalised response (BT-549 [8]) [%]	normalised response (SK-BR-3) [%]	normalised response (MDA-MB-231 [9]) [%]	normalised response (CAL-120 [10]) [%]	normalised response (MDA-MB-453 [11]) [%]	normalised response (MFM-223 [12]) [%]	normalised response (HCC1937 [13]) [%]	normalised response (CAL-148 [14]) [%]	normalised response (MDA-MB-468 [15]) [%]	normalised response (HCC1599 [16]) [%]	normalised response (MCF-10A [17]) [%]	normalised response (CAL-85-1 [18]) [%]	normalised response (Hs578T [19]) [%]	normalised response (MDA-MB-436 [20]) [%]	normalised response (BT-474 [21]) [%]	normalised response (HDQ-P1 [22]) [%]	normalised response (CAL-51 [23]) [%]	normalised response (DU-4475 [24]) [%]	normalised response (HCC1143 [25]) [%]	normalised response (BT-549 [26]) [%]	normalised response (MDA-MB-231 [27]) [%]	normalised response (CAL-120 [28]) [%]	normalised response (MDA-MB-453 [29]) [%]	normalised response (MFM-223 [30]) [%]	normalised response (HCC1937 [31]) [%]	normalised response (CAL-148 [32]) [%]	normalised response (MDA-MB-468 [33]) [%]	normalised response (HCC1599 [34]) [%]	normalised response (MCF-10A [35]) [%]	normalised response (CAL-85-1 [36]) [%]
CO[C@H]1C[C@@H]2CC[C@@H](C)[C@@](O)(O2)C(=O)C(=O)N2CCCC[C@H]2C(=O)O[C@H]([C@H](C)C[C@@H]2CC[C@@H](OCCO)[C@H](OC)C2)CC(=O)[C@H](C)/C=C(\C)[C@@H](O)[C@@H](OC)C(=O)[C@H](C)C[C@H](C)/C=C/C=C/C=C/1C [Everolimus] (100 nM)	65.1	75.5	77.6	72.9	64.3	63.7	61.5	61	49.5	87.9	63.5	51.5	61.6	66.1	53.4	57.5	104	80.9	63.1	79.6	99.7	100	109	98.1	95.4	66.4	100	111	99.3	104	53.1	88.6	92.5	158	95.8	92.9	122
CCCCCCCCc1ccc(CCC(N)(CO)CO)cc1 [Fingolimod] (10000 nM)	62.2	12.8	1.96	27.9	47.6	89.2	75.8	11.2	-0.19	1.4	78.1	0.66	39.2	5.87	44.7	-0.02	61.6	-0.32	-0.17	37.8	44.4	0.12	53.7	47.5	100	97	57	-62.5	69.4	33.6	62.1	5.79	67.4	-186	91.4	-90	-110
COc1ccccc1S(=O)(=O)Nc1ccc2c(c1)CN(C)C(=O)N2 [PFI-1] (10000 nM)	41.6	80	64.6	65.2	56.9	71.8	67.1	44.5	64.3	66.8	75.8	42.8	59.5	74.1	82	65.4	56.6	54.1	46.2	135	101	105	103	83.5	90.2	104	108	117	104	94.5	103	120	91.6	193	104	125	65.1
C/C(=C\c1csc(C)n1)[C@@H]1C[C@@H]2O[C@]2(C)CCC[C@H](C)[C@H](O)[C@@H](C)C(=O)C(C)(C)[C@@H](O)CC(=O)O1 [Patupilone] (1000 nM)	12.2	31.5	36.8	62.4	25.4	49.2	31.3	18.5	11.7	29.8	58.4	53.2	47.4	74	54.1	36	25.3	41.5	20.7	-68.9	78.4	52.6	93.3	41.2	100	53.7	74.4	-10.5	87.5	96.4	55.5	103	52.6	97.4	92.5	20.1	-11.4
NS(=O)(=O)OC[C@@H]1C[C@@H](n2ccc3c(N[C@H]4CCc5ccccc54)ncnc32)C[C@@H]1O [Pevonedistat] (10000 nM)	60.1	21	45.5	72.6	10	0.22	33.9	27	30.4	46	47.8	66.2	49.9	60.3	123	32.9	18.2	91.2	39.7	91	28.2	104	90.5	-20.5	73.8	87.8	78.3	100	97	95.5	99	107	90.7	56.6	72.6	95.7	53.7
CN(C)C[C@@H]1CCn2cc(c3ccccc32)C2=C(C(=O)NC2=O)c2cn(c3ccccc23)CCO1 [Ruboxistaurin] (10000 nM)	70.6	3.33	4.02	35	7.88	62.1	48.1	10.1	-0.11	0.34	55.2	0.01	34.9	38.5	0.12	1.42	78.9	42.6	1.43	62.9	-6.73	-10.6	26.2	-50.2	92.1	103	30.4	-85	76.3	9.28	73.5	33	10.5	-88	91.6	54.2	-82.9
Cn1cncc1[C@@](N)(c1ccc(Cl)cc1)c1ccc2c(c1)c(-c1cccc(Cl)c1)cc(=O)n2C [Tipifarnib] (10000 nM)	49.6	34.7	53.9	60.2	59.1	46.9	49.6	40.3	33.5	73.8	63.4	63.7	39.6	53.1	54.7	31.8	40.6	74.3	61.5	101	81.1	75.5	69.9	84	85.6	98.7	90.4	57.5	81	92.4	75.5	72.2	89.5	88.8	98	92.6	75.2
O=C1NC(=O)[C@@H](c2cn3c4c(cccc24)CCC3)[C@@H]1c1c[nH]c2ccccc12 [Tivantinib] (1000 nM)	24.6	43.6	60.2	69.9	38.7	71.6	53.5	35.4	16.4	56.2	49.4	54.3	60	69.4	41.5	29.7	47.9	58.1	30.6	52.5	68.1	76	80.2	26.8	93.6	104	85.3	11.1	74.4	96.2	76.4	84.5	71.5	60.4	77.5	57.7	20.5
